Laboratory results: ChEMBL document CHEMBL2150877, “γ-Secretase modulators as potential disease modifying anti-Alzheimer's drugs” (J Med Chem, 2011)
pEC50, pIC50: −log10 of the molar value.

Legend:
[1] = Drug level in mouse brain dosed for 4 weeks; assay type: ADME, organism-based; settings: read-out: Drug uptake
Mus musculus [2] = test: Antialzheimer activity in transgenic hAPP mouse expressing Swedish and London mutations assessed as reduction in plaque area in brain cortex dosed for 6 months; assay type: functional; parameters: scale not given: the % may be the effect or the level left
Mus musculus [3] = test: Antialzheimer activity in transgenic hAPP mouse expressing Swedish and London mutations assessed as reduction in plaque number in brain hippocampus dosed for 6 months; assay type: functional; parameters: scale not given: the % may be the effect or the level left
[4] = Drug level in mouse plasma dosed for 4 weeks; assay type: ADME, organism-based
Mus musculus [5] = test: Antialzheimer activity in transgenic Alzheimer disease mouse model assessed as increase in recognition index at 125 ppm dosed for 10 months by object recognition memory test (reference value: 48.9%); assay type: functional
[6] = Drug level in brain of Tg2576 mouse expressing human APP Swedish mutant at 60 mg/kg/day after 17 weeks; assay type: ADME, organism-based; settings: read-out: Drug uptake
[7] = Inhibition of gamma secretase assessed as reduction in Abeta42 production
Mus musculus [8] = test: Antialzheimer activity in transgenic hAPP mouse expressing Swedish and London mutations assessed as reduction in plaque number in brain cortex dosed for 6 months; assay type: functional; parameters: scale not given: the % may be the effect or the level left
Mus musculus [9] = test: Brain penetration in mouse assessed as brain/plasma ratio at 100 or 300 mg/kg/day for 4 to 5 days; assay type: ADME, organism-based; settings: in vivo
Mus musculus [10] = test: Antialzheimer activity in transgenic Alzheimer disease mouse model assessed as increase in recognition index at 375 ppm dosed for 10 months by object recognition memory test (reference value: 48.9%); assay type: functional
Mus musculus [11] = test: Antialzheimer activity in transgenic hAPP mouse expressing Swedish and London mutations assessed as reduction in plaque area in brain hippocampus dosed for 6 months; assay type: functional; parameters: scale not given: the % may be the effect or the level left
Mus musculus [12] = test: Antialzheimer activity in po dosed YAC transgenic mouse model assessed as plasma compound concentration causing reduction in brain Abeta42 levels; assay type: functional, organism-based
Mus musculus [13] = test: Antialzheimer activity in YAC transgenic mouse model assessed as reduction in brain Abeta42 levels at 10 mg/kg, po measured after 7 hrs; assay type: functional; parameters: scale not given: the % may be the effect or the level left
Mus musculus [14] = test: Antialzheimer activity in po dosed YAC transgenic mouse model assessed as brain compound concentration causing reduction in brain Abeta42 levels; assay type: functional, organism-based
Mus musculus [15] = test: Antialzheimer activity in po dosed YAC transgenic mouse model assessed as reduction in Abeta42 levels; assay type: functional

| Structure (SMILES) | concentration at 672 h [1] [µM] | Activity (Mus musculus [2]) [%] | Activity (Mus musculus [3]) [%] | concentration at 672 h [4] [µM] | Activity (Mus musculus [5]) [%] | concentration at 2856 h [6] [µM] | pIC50 [7] | Activity (Mus musculus [8]) [%] | permeability (Mus musculus [9]) [%] | Activity (Mus musculus [10]) [%] | Activity (Mus musculus [11]) [%] | pEC50 (Mus musculus [12]) | Activity (Mus musculus [13]) [%] | pEC50 (Mus musculus [14]) | ED50 (Mus musculus [15]) [mg/kg] |
| --- | --- | --- | --- | --- | --- | --- | --- | --- | --- | --- | --- | --- | --- | --- | --- |
| O=C(O)C1(c2ccc(-c3ccc(Cl)c(Cl)c3)c(F)c2)CC1 | 20 | 32 | 34 | 580 | 62.2 | 6.4 | 4.40 | 28 | 5 | 64.1 | 42 |  |  |  |  |
| CC(C)(C)CC[C@H](CCC(F)(F)F)N1CCC(F)(F)[C@H](CC(=O)O)[C@H]1c1ccc(C(F)(F)F)cc1 |  |  |  |  |  |  | 6.22 |  |  |  |  | 5.43 | 84 | 6.00 | 5 |
